Assay results as given in patent US11191766B2, “Methods of treating pediatric cancers” (Loxo Oncology, Inc., priority 2016, dated 2021).
Counter-ions that a name gives are not always drawn.

Assays:
[1] = system: Infantile Fibrosarcoma with NTRK3-ETV6 Fusion; test: Phase 1 pediatric study of oral liquid formulation, case of infantile fibrosarcoma (MR imaging response); assay type: in vivo, human
[2] = first two cycles; fever and influenza A considered not related
[3] = Accelerated stability study in an LDPE bag at 40° C./75% RH for five weeks; assay type: physicochemical
[4] = Hygroscopicity: dynamic vapor sorption (DVS) / exposure to humidity; assay type: physicochemical; conditions: for hygroscopicity: non-hygroscopic = less than a 2% weight gain at 25° C. and 80% RH after 24 to 48 hours
Experimental: For the DVS measurement a sample of crystalline form (I-HS) was cycled through changing humidity conditions to determine its hygroscopicity. The sample was analyzed using a Surface Measurement System DVS-1 Dynamic Vapor Sorption System. […] Data was collected in 1 minute intervals. Nitrogen was used as the carrier gas. […] After completion of the sorption cycle, the sample was dried using the same procedure, but all the way down to 0% RH and finally taken back to the starting point of 20% RH. The weight change during the sorption/desorption cycles were plotted, allowing for the hygroscopic nature of the sample to be determined.
The crystalline form (I-HS), as noted previously, is non-hygroscopic. […] Given this tendency, use of the AM(HS) compound would require significant handling precautions during storage and manufacture to prevent this change in form from occurring whereas the crystalline form (I-HS) requires no such precautions during manufacture of the API.

[5] = Flow properties (Carr's and Hausner Index); assay type: physicochemical
From the text: The differences in flow properties can make the development of a solid oral dosage form more difficult for the amorphous API vs. the crystalline API.

Structure (SMILES) | response on repeat scans ([1]; end of Cycle 2, size reduction confirmed, continued decrease in enhancement) | interval reduction in the size and enhancement of the mass from baseline (MR of the brain and neck) ([1]; end of cycle 1 (day 28), BID, patient) | clinical observation noted by the parents ([1]; throughout cycle 1) | adverse events related to compound [2] | chemical impurity levels over the course of the study [3] | hygroscopicity [4] | change in crystalline form during DVS (XRPD post vs pre DVS) [4] | hysteresis between sorption and desorption cycles ([4]; DVS) | increase in mass during the sorption cycle ([4]; between 0% and 90% RH) | flow properties compared with amorphous API [5]
O=C(Nc1cnn2ccc(N3CCC[C@@H]3c3cc(F)ccc3F)nc12)N1CC[C@H](O)C1 [Compound I-HS, (S)—N-(5-((R)-2-(2,5-difluorophenyl)pyrrolidin-1-yl)-pyrazolo[1,5-a]pyrimidin-3-yl)-3-hydroxypyrrolidine-1-carboxamide hydrogen sulfate] | partial response | more than 90% | improved engagement and playfulness | no adverse events related to Compound I-HS | – | – | – | – | – | –
O=C(Nc1cnn2ccc(N3CCC[C@@H]3c3cc(F)ccc3F)nc12)N1CC[C@H](O)C1.O=S(=O)(O)O [AM(HS), (S)—N-(5-((R)-2-(2,5-difluorophenyl)pyrrolidin-1-yl)-pyrazolo[1,5-a]pyrimidin-3-yl)-3-hydroxypyrrolidine-1-carboxamide hydrogen sulfate] | – | – | – | – | neither the AM(HS) or crystalline form (I-HS) exhibited a significant changes in chemical impurity levels | deliquesce upon exposure to humidity | – | – | – | –
O=C(Nc1cnn2ccc(N3CCC[C@@H]3c3cc(F)ccc3F)nc12)N1CC[C@H](O)C1 [crystalline form (I-HS), (S)—N-(5-((R)-2-(2,5-difluorophenyl)pyrrolidin-1-yl)-pyrazolo[1,5-a]pyrimidin-3-yl)-3-hydroxypyrrolidine-1-carboxamide hydrogen sulfate] | – | – | – | – | neither the AM(HS) or crystalline form (I-HS) exhibited a significant changes in chemical impurity levels | non-hygroscopic | no change | very small hysteresis | about 1.7% | better flow properties
